Data published in US20130143929A1, “FUNGICIDAL IMIDAZOLES” (EI DU PONT DE NEMOURS AND COMPANY, priority 2010, published 2013).
Marks after values point to notes of the source that are not given here.

Experiments:
Assay type in all cases: in vivo
[1] = system: Septoria tritici (the causal agent of wheat leaf blotch); assay: Test B: wheat leaf blotch, preventive spray on wheat seedlings, visual disease rating; conditions: wheat leaf blotch, preventive spray on wheat seedlings
In short: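 Wheat seedlings sprayed to run-off with compound suspension (acetone/water with 250 ppm Trem 014; 200 ppm ≈ 800 g/ha, some at 40 ppm), inoculated next day with Septoria tritici spores. 48 h saturated humidity at 24 °C, then 19 days at 20 °C; visual rating, 100 = full control.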

[2] = system: Blumeria graminis f. sp. tritici (also known as Erysiphe graminis f. sp. tritici, the causal agent of wheat powdery mildew); assay: Test D: wheat powdery mildew, preventive spray on wheat seedlings, visual disease rating; conditions: wheat powdery mildew, preventive spray on wheat seedlings
In short: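 Compound suspended in acetone/water (50/50) with 250 ppm Trem 014 and sprayed to run-off on wheat seedlings (200 ppm ≈ 800 g/ha), then inoculated next day with spore dust. Disease rated visually after 8 days at 20 °C as % control relative to untreated plants (0-100).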

[3] = system: Puccinia recondite f. sp. tritici (the causal agent of wheat leaf rust); assay: Test A: wheat leaf rust, preventive spray on wheat seedlings, visual disease rating; conditions: wheat leaf rust, preventive spray on wheat seedlings
In short: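 Wheat seedlings were sprayed to run-off with compound suspended in acetone/water containing 250 ppm Trem 014 (200 ppm ≈ 800 g/ha; some at 40 ppm). Puccinia recondite spores were inoculated the next day. Plants were held 24 h saturated at 20° C, then 7 days at 20° C, and disease control was rated visually on a 0–100 scale against controls.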

[4] = system: Botrytis cinerea (the causal agent of tomato Botrytis); assay: Test C: tomato Botrytis, preventive spray on tomato seedlings, visual disease rating; conditions: tomato Botrytis, preventive spray on tomato seedlings
In short: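 Test suspension (acetone/water with 250 ppm Trem 014; 200 ppm equivalent to 800 g/ha) sprayed to run-off on tomato seedlings; B. cinerea spores inoculated next day. After 48 h saturated humidity at 20° C then 3 days at 24° C, disease rated visually as % control relative to untreated controls (0–100).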

[5] = asterisk: 40 ppm test suspension
[6] = no asterisk (standard test suspension concentration, not 40 ppm)

Row | SMILES | Test B rating (100 = 100% disease control, 0 = no disease control relative to the controls) [1, 5] | Test D rating (100 = 100% disease control, 0 = no disease control relative to the controls) [2, 5] | Test A rating (100 = 100% disease control, 0 = no disease control relative to the controls) [3, 5] | Test C rating (100 = 100% disease control, 0 = no disease control relative to the controls) [4, 5] | Test B rating (100 = 100% disease control, 0 = no disease control relative to the controls) [1, 6] [%] | Test D rating (100 = 100% disease control, 0 = no disease control relative to the controls) [2, 6] [%] | Test A rating (100 = 100% disease control, 0 = no disease control relative to the controls) [3, 6] [%] | Test C rating (100 = 100% disease control, 0 = no disease control relative to the controls) [4, 6] [%]
1 | COc1ccc(C(O)c2c(Br)nc(C)n2-c2ccc(F)cc2F)c(F)c1 (racemic) [compound 284] | 100* % | 0* % | 100* % | 41* % | – | – | – | –
2 | COc1ccc(C(O)c2c(Br)nc(C)n2-c2ccc(F)cc2F)c(Cl)c1 (racemic) [compound 285] | 88* % | 0* % | 99* % | 0* % | – | – | – | –
3 | COc1ccc(C(O)c2c(Br)nc(Br)n2-c2c(F)cccc2F)c(Cl)c1 (racemic) [compound 286] | 100* % | 97* % | 100* % | 100* % | – | – | – | –
4 | Cc1nc(Br)n(-c2c(F)cc(Cl)cc2F)c1C(O)c1ccc(F)cc1F (racemic) [compound 299] | 100* % | 87* % | 100* % | 100* % | – | – | – | –
5 | COc1ccc(C(O)c2cnc(C)n2-c2ccc(F)cc2Cl)c(F)c1 (racemic) [compound 300] | 95* % | 0* % | 95* % | 0* % | – | – | – | –
6 | Cc1ncc(C(O)c2ccc(F)cc2Br)n1-c1ccc(F)cc1F (racemic) [compound 301] | 19* % | 0* % | 97* % | 24* % | – | – | – | –
7 | Cc1nc(Cl)n(-c2c(F)cc(F)cc2Br)c1C(O)c1ccc(F)cc1F (single isomer, unassigned) [compound 16] | – | – | – | – | 100 | 100 | 100 | 100
8 | Cc1nc(Cl)n(-c2c(F)cc(F)cc2Br)c1C(O)c1ccc(F)cc1F (single isomer, unassigned) [compound 17] | – | – | – | – | 100 | 100 | 100 | 100
9 | OC(c1ccc(F)cc1F)c1c(Cl)nc(Cl)n1-c1ccc(F)cc1Cl (single isomer, unassigned) [compound 19] | – | – | – | – | 100 | 98 | 100 | 100
10 | OC(c1ccc(F)cc1F)c1c(Cl)nc(Cl)n1-c1ccc(F)cc1Cl (single isomer, unassigned) [compound 20] | – | – | – | – | 100 | 100 | 100 | 100
11 | OC(c1ccc(F)cc1F)c1c(Cl)nc(Cl)n1-c1ccc(Cl)cc1Cl (single isomer, unassigned) [compound 21] | – | – | – | – | 100 | 69 | 100 | 100
12 | OC(c1ccc(F)cc1F)c1c(Cl)nc(Cl)n1-c1ccc(Cl)cc1Cl (single isomer, unassigned) [compound 22] | – | – | – | – | 100 | 0 | 100 | 98
13 | Cc1nc(Cl)n(-c2ccc(F)cc2Cl)c1C(O)c1ccc(F)cc1F (single isomer, unassigned) [compound 27] | – | – | – | – | 100 | 99 | 100 | 100
14 | Cc1nc(Cl)n(-c2ccc(F)cc2Cl)c1C(O)c1ccc(F)cc1F (single isomer, unassigned) [compound 28] | – | – | – | – | 100 | 71 | 100 | 100
15 | OC(c1ccc(Cl)cc1)c1c(Cl)nc(Cl)n1-c1ccc(F)cc1Cl (single isomer, unassigned) [compound 47] | – | – | – | – | 100 | 0 | 100 | 99
16 | OC(c1ccc(Cl)cc1)c1c(Cl)nc(Cl)n1-c1ccc(F)cc1Cl (single isomer, unassigned) [compound 48] | – | – | – | – | 100 | 85 | 100 | 100
17 | Cc1cc(F)ccc1C(O)c1c(Cl)nc(Cl)n1-c1ccc(F)cc1Cl (single isomer, unassigned) [compound 50] | – | – | – | – | 100 | 90 | 100 | 100
18 | Cc1cc(F)ccc1C(O)c1c(Cl)nc(Cl)n1-c1ccc(F)cc1Cl (single isomer, unassigned) [compound 51] | – | – | – | – | 100 | 47 | 100 | 99
19 | OC(c1ccc(F)cc1F)c1c(Cl)nc(Cl)n1-c1ccc(F)cc1F (single isomer, unassigned) [compound 78] | – | – | – | – | 100 | 82 | 100 | 99
20 | OC(c1ccc(F)cc1F)c1c(Cl)nc(Cl)n1-c1ccc(F)cc1F (single isomer, unassigned) [compound 79] | – | – | – | – | 100 | 0 | 100 | 98
